Data published in patent US10827695B2, “Process for in vitro flowering in Crocus sativus L” (Council of Scientific & Industrial Research, priority 2015, dated 2020).

Test system: saffron crocus (Crocus sativus L.) corm explants
Experiment: in-vitro induction of flowering / proliferation of floral primordia in corm explants on MS medium with PGR
Type: cell-based
Experimental: Accordingly, the incubation is carried out at a temperature in the range of 9° C. to 30° C. preferably at a temperature in the range of 9° C. to 21° C., with RH (relative humidity) in the range of 50 to 90%, and photoperiod of about 16 hours provided by 1/2/4 cool fluorescent tubes (Philips, 40 W), giving about 11.7 ? mol m−^2 s^−1 PPF (Photosynthetic Photon Flux) i.e. ˜866 lux (illuminance) each followed by 8-h dark period. The cultures are maintained for 4-5 weeks in the medium at above incubation conditions during which 80% of the culture remain sterile and show sprouting. They are then transferred to fresh MS medium of same composition and incubated under sterile conditions for about 1 to 2 weeks till the sprouted buds are about 8 cm long. The sprouted buds are slit vertically and incubated in MS medium of same composition for another 2 to 3 weeks under the same conditions. This helps the bud to open and grow further (FIG. 1 & FIG. 2).
(§1) Corms weighing ˜10 gm were used for the experiments. Explants were prepared by trimming the sides and base of the corms and making small cubes of about 1 cm^3 containing the dormant or slightly sprouted apical buds on 22 Oct. 2014.
These explants were surface sterilized by washing them with neutral Detergent Labolene for 10 min followed by washing with 15% Savlon for 10 minutes. Further, these explants were treated with 1% Bavistin (BASF) for 30 minutes followed by 5 min followed by 0.08% mercuric chloride treatment in a sterile work station (Laminar Air Flow cabinet). After each treatment the explants were washed with sterile distilled water.
Murashige and Skoog Medium supplemented with 6 benzyl amino purine (BAP) (1.0 mg/l) was used for culture. The media made in distilled water was further constituted with 3% sucrose and 0.6% agar. The final pH was adjusted at 5.7. The media was autoclaved at 121° C. at 15 lbs pressure for 20 minutes.
The cultures were maintained for 5 weeks in the medium at 25±2° C., light intensity 16-h light (at 11.7 ? mol m^−2s^−1) followed by 8-h dark period.
The sterile sprouted buds of 5-7 cms length were transferred to fresh medium of same composition after making a vertical slit on the sprouting bud. It helps the bud to open and grow further.
They were again incubated for 3 weeks under the same incubation conditions.
as §1, with “2014. One part of such samples was used for this set-up, while other was reserved for set ^-up of Example 3.” for “2014.”
The explants were surface sterilized by passing it through Detergent Labolene for 10 min followed by washing with 15% Savlon for 10 minutes. Further, the cubed explants were treated with 1% Bavistin (BASF) for 30 minutes followed by 5 min 0.08% mercuric chloride treatment in a sterile work station (Laminar Air Flow cabinet). After each treatment the explants were washed with sterile distilled water.
The cultures were maintained for 5 weeks in the medium at 25±2° C. Light intensity 16-h light (at 11.7 ? mol m^−2 s^−1) followed by 8-h dark period.
The sterile sprouted buds of 5-7 cm length were transferred to fresh medium of same composition after making a vertical slit on the sprouting bud.
The explants were surface sterilized by treating them with neutral detergent Labolene for 15 min followed by washing with 20% Savlon for 5 minutes. […]

| SMILES | flowering in cultures (Example 3, MS medium with 0.01, 0.05 and 0.1 mg/l, by last week of December 2014) | flowering in cultures maintained on fresh medium (Example 3, MS medium with 0.01, 0.05 and 0.1 mg/l, till May 2015) | flowering in cultures (Example 1, MS medium with 1.0 mg/l, explants prepared 22 Oct. 2014, observed by Nov. 5, 2014 (natural flowering season)) | flowering in cultures maintained on fresh medium (Example 2, MS medium with 1.0 mg/l, until May 2015) | initiation of flowering in culture (Example 2, MS medium with 1.0 mg/l, until late December 2014 (beyond natural flowering period)) |
| --- | --- | --- | --- | --- | --- |
| O=C(Nc1ccccc1)Nc1cnns1 [TDZ, thidiazuron] | Flowering was observed | flowering was observed |  |  |  |
| c1ccc(CNc2ncnc3nc[nH]c23)cc1 [BAP, 6-benzylaminopurine] |  |  | Flowering was observed | flowering was observed | Initiation of flowering was observed |
